Laboratory results taken from patent US10913738B2 (BRISTOL-MYERS SQUIBB COMPANY, priority 2017, dated 2021).
Where two headings read alike, the source gives them in different places.

Columns and labels:
[1] = biological target: T1, His-GST-TVMV-hRIPK1(1-324) (Homo sapiens, UniProt Q13546); assay: RIPK1 HTRF Binding Assay
T1 construct: The coding region of human RIPK1(1-324) flanked by NdeI site at 5′ end; made in house; host or cells: Spodoptera frugiperda (Sf9) insect cells, baculovirus
T1 sequence (Q13546 1-324): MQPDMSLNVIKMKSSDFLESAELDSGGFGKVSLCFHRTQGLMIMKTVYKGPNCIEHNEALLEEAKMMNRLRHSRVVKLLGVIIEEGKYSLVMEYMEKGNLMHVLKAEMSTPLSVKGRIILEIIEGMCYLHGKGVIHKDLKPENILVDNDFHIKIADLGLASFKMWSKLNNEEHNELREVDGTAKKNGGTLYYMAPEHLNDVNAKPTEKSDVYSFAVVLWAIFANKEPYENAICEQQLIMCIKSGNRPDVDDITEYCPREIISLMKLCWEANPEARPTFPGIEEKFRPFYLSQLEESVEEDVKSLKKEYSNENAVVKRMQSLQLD

[2] = test system: MLKL phosphorylation in HT29-L23 human colorectal adenocarcinoma cells; assay: MLKL Phosphorylation High-Content Assay; type: cell-based; conditions: Homo sapiens
Summary of the method: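 Cells incubated six hours at 37° C., then phospho-MLKL (S358) immunostained overnight at 4° C. and imaged by high-content microscopy. Phosphorylation quantified as mean circ-ring average intensity ratio; IC50 and Ymax from 4-parameter logistic fits.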

[3] = x marks IC50 class <20 nM, read-out: RIPK1 HTRF binding <20 nM
[4] = x marks IC50 class 20-200 nM, read-out: pMLKL cell activity 20-200 nM
[5] = x marks IC50 class <20 nM, read-out: pMLKL cell activity <20 nM
[6] = x marks IC50 class 20-200 nM, read-out: RIPK1 HTRF binding 20-200 nM
[7] = x marks IC50 class >200 nM, read-out: pMLKL cell activity >200 nM

Structure (SMILES)	IC50 [1, 3] [nM]	IC50 [2, 4] [nM]	IC50 [2, 5] [nM]	IC50 [1, 6] [nM]	IC50 [2, 7] [nM]
COc1ncc(-c2ccn3nc(N)nc3c2)cc1C(=O)NCc1cc(F)cc(F)c1O[C@H]1CCOC1 [Example 360, (S)-5-(2-amino-[1,2,4]triazolo[1,5-a]pyridin-7-yl)-N-(3,5-difluoro-2-((tetrahydrofuran-3-yl)oxy)benzyl)-2-methoxynicotinamide]	< 20	20 to 200			
[2H]C([2H])(NC(=O)c1cc(-c2ccn3nc(N)nc3c2)cnc1C)c1cc(C(F)(F)F)ccc1F [Example 307, 5-(2-amino-[1,2,4]triazolo[1,5-a]pyridin-7-yl)-N-((2-fluoro-5-(trifluoromethyl)phenyl)methyl-H2)-2-methylnicotinamide]	< 20	20 to 200			
Cc1ncc(-c2ccn3nc(N)nc3c2)cc1C(=O)NCc1ccccc1OC1CCCC1 [Example 249, 5-{2-amino-[1,2,4]triazolo[1,5-a]pyridin-7-yl}-N-{[2-(cyclopentyloxy)phenyl]methyl}-2-methylpyridine-3-carboxamide]	< 20		< 20		
COc1nc(C)c(-c2ccn3nc(N)nc3c2)cc1C(=O)NCCc1cccc(OC(F)(F)F)c1 [Example 198, 5-{2-amino-[1,2,4]triazolo[1,5-a]pyridin-7-yl}-2-methoxy-6-methyl-N-{2-[3-(trifluoromethoxy)phenyl]ethyl}pyridine-3-carboxamide]				20 to 200	> 200
COc1nc(C)c(-c2ccn3nc(N)nc3c2)cc1C(=O)N(C)[C@H](C)c1cc(OC(F)(F)F)ccc1F [Example 325, (R)-5-(2-amino-[1,2,4]triazolo[1,5-a]pyridin-7-yl)-N-(1-(2-fluoro-5-(trifluoromethoxy)phenyl)ethyl)-2-methoxy-N,6-dimethylnicotinamide]		20 to 200		20 to 200	
COc1ncc(-c2ccn3nc(N)nc3c2)cc1C(=O)NCc1c(F)cccc1OCC1CCC1 [Example 146, 5-{2-amino-[1,2,4]triazolo[1,5-a]pyridin-7-yl}-N-{[2-(cyclobutylmethoxy)-6-fluorophenyl]methyl}-2-methoxypyridine-3-carboxamide]	< 20		< 20		
[2H]C([2H])([2H])Oc1ncc(-c2ccn3nc(N)nc3c2)cc1C(=O)NC(C)c1ccccc1OC(F)(F)F (single isomer, unassigned) [Example 95-2, 5-{2-amino-[1,2,4]triazolo[1,5-a]pyridin-7-yl}-2-(deutero)methoxy-N-{1-[2-(trifluoromethoxy)phenyl]ethyl}pyridine-3-carboxamide]	< 20		< 20		
Cc1nc(Cl)c(C(=O)N[C@H](C)c2cc(OC(F)(F)F)ccc2F)cc1-c1ccn2nc(N)nc2c1 [Example 323, (R)-5-(2-amino-[1,2,4]triazolo[1,5-a]pyridin-7-yl)-2-chloro-N-(1-(2-fluoro-5-(trifluoromethoxy)phenyl)ethyl)-6-methylnicotinamide]		20 to 200		20 to 200	
COc1nc(C)c(-c2ccn3nc(N)nc3c2)cc1C(=O)NCc1cccc(C(F)(F)F)c1 [Example 199, 5-{2-amino-[1,2,4]triazolo[1,5-a]pyridin-7-yl}-2-methoxy-6-methyl-N-{[3-(trifluoromethyl)phenyl]methyl}pyridine-3-carboxamide]				20 to 200	> 200
[2H]C([2H])(NC(=O)c1cc(-c2ccn3nc(N)nc3c2)cnc1C)c1cc(OC(F)(F)F)ccc1F [Example 252, 5-{2-amino-[1,2,4]triazolo[1,5-a]pyridin-7-yl}-N-{[2-fluoro-5-(trifluoromethoxy)phenyl](deutero)methyl}-2-methylpyridine-3-carboxamide]	< 20		< 20		
CCOc1ncc(-c2ccn3nc(N)nc3c2)cc1C(=O)NCC[C@H](O)c1ccc(Cl)cc1 [Example 278, 5-{2-amino-[1,2,4]triazolo[1,5-a]pyridin-7-yl}-N-[(3S)-3-(4-chlorophenyl)-3-hydroxypropyl]-2-ethoxypyridine-3-carboxamide]				20 to 200	> 200
COc1ncc(-c2ccn3nc(N)nc3c2)cc1C(=O)NCc1ccc(F)cc1OCC1CCCC1 [Example 130, 5-{2-amino-[1,2,4]triazolo[1,5-a]pyridin-7-yl}-N-{[2-(cyclopentylmethoxy)-4-fluorophenyl]methyl}-2-methoxypyridine-3-carboxamide]	< 20	20 to 200			
COc1ncc(-c2ccn3nc(N)nc3c2)cc1C(=O)NCc1ccccc1OCC1CCC1 [Example 149, 5-{2-amino-[1,2,4]triazolo[1,5-a]pyridin-7-yl}-N-{[2-(cyclobutylmethoxy)phenyl]methyl}-2-methoxypyridine-3-carboxamide]	< 20		< 20		
COc1nnc(-c2ccn3nc(N)nc3c2)cc1C(=O)NCc1cc(OC(F)(F)F)ccc1F [Example 386, 6-(2-amino-[1,2,4]triazolo[1,5-a]pyridin-7-yl)-N-(2-fluoro-5-(trifluoromethoxy)benzyl)-3-methoxypyridazine-4-carboxamide]				20 to 200	> 200
COc1ncc(-c2ccn3nc(N)nc3c2)cc1C(=O)NCCC(O)c1ccc(F)cc1 (single isomer, unassigned) [Example 71-1, 5-(2-Amino-[1,2,4]triazolo[1,5-a]pyridin-7-yl)-N-(3-(4-fluorophenyl)-3-hydroxypropyl)-2-methoxynicotinamide]		20 to 200		20 to 200	
COc1ncc(-c2ccn3nc(N)nc3c2)cc1C(=O)NCc1cccnc1OCC1CCCC1 [Example 127, 5-{2-amino-[1,2,4]triazolo[1,5-a]pyridin-7-yl}-N-{[2-(cyclopentylmethoxy)pyridin-3-yl]methyl}-2-methoxypyridine-3-carboxamide]	< 20	20 to 200			
CC(CCNC(=O)c1cc(-c2ccn3nc(N)nc3c2)cnc1N(C)C)c1ccccc1 (stereo not shown) [Example 64, 5-{2-Amino-[1,2,4]triazolo[1,5-a]pyridin-7-yl}-2-(dimethylamino)-N-(3-phenylbutyl)pyridine-3-carboxamide]		20 to 200		20 to 200	
CCc1ncc(-c2ccn3nc(N)nc3c2)cc1C(=O)NCCC(C)c1ccccc1 (stereo not shown) [Example 66, 5-{2-Amino-[1,2,4]triazolo[1,5-a]pyridin-7-yl}-2-ethyl-N-(3-phenylbutyl)pyridine-3-carboxamide]	< 20	20 to 200			
Nc1nc2cc(-c3cncc(C(=O)NCc4cc(F)ccc4OC4CCCC4)c3)ccn2n1 [Example 41, 5-{2-Amino-[1,2,4]triazolo[1,5-a]pyridin-7-yl}-N-{[2-(cyclopentyloxy)-5-fluorophenyl]methyl}pyridine-3-carboxamide]	< 20	20 to 200			
COc1nc(C)c(-c2ccn3nc(N)nc3c2)cc1C(=O)NCc1ccccc1OC1CCOCC1 [Example 195, 5-{2-amino-[1,2,4]triazolo[1,5-a]pyridin-7-yl}-2-methoxy-6-methyl-N-{[2-(oxan-4-yloxy)phenyl]methyl}pyridine-3-carboxamide]	< 20		< 20		
COc1ncc(-c2ccn3nc(N)nc3c2)cc1C(=O)NCc1ccccc1S(=O)(=O)C(C)C [Example 104, 5-{2-amino-[1,2,4]triazolo[1,5-a]pyridin-7-yl}-2-methoxy-N-{[2-(propane-2-sulfonyl)phenyl]methyl}pyridine-3-carboxamide]	< 20				> 200
COc1ncc(-c2ccn3nc(N)nc3c2)cc1C(=O)N1CCC[C@@H](Cc2cccc(F)c2)C1 [Example 114, 7-{5-[(3S)-3-[(3-fluorophenyl)methyl]piperidine-1-carbonyl]-6-methoxypyridin-3-yl}-[1,2,4]triazolo[1,5-a]pyridin-2-amine]	< 20		< 20		
[2H]C([2H])([2H])[C@@H](NC(=O)c1cc(-c2ccn3nc(N)nc3c2)c(C)nc1C)c1cc(OC(F)(F)F)ccc1F [Example 286, (R)-5-(2-amino-[1,2,4]triazolo[1,5-a]pyridin-7-yl)-N-(1-(2-fluoro-5-(trifluoromethoxy)phenyl)ethyl-2,2,2-d3)-2,6-dimethylnicotinamide]	< 20	20 to 200			
COc1cnc(-c2ccn3nc(N)nc3c2)cc1C(=O)N[C@H](C)c1cc(OC(F)(F)F)ccc1F [Example 389, (R)-2-(2-amino-[1,2,4]triazolo[1,5-a]pyridin-7-yl)-N-(1-(2-fluoro-5-(trifluoromethoxy)phenyl)ethyl)-5-methoxyisonicotinamide]				20 to 200	> 200
COc1ncc(-c2ccn3nc(N)nc3c2)cc1C(=O)NCc1ccccc1CN1CCOCC1 [Example 105, 5-{2-amino-[1,2,4]triazolo[1,5-a]pyridin-7-yl}-2-methoxy-N-({2-[(morpholin-4-yl)methyl]phenyl}methyl)pyridine-3-carboxamide]	< 20				> 200
COc1nc(C)c(-c2ccn3nc(N)nc3c2)cc1C(=O)NCc1c(F)cccc1OCC(F)(F)F [Example 328, 5-(2-amino-[1,2,4]triazolo[1,5-a]pyridin-7-yl)-N-(2-fluoro-6-(2,2,2-trifluoroethoxy)benzyl)-2-methoxy-6-methylnicotinamide]	< 20		< 20		
